The values that follow come from US12203144B2, “Analytes' detection using regulated in vitro transcription” (Northwestern University, priority 2018, dated 2025).

Assay [1] has as its target T1, TetR (Escherichia coli, UniProt P04483).
T1 construct: 6xHis; made in house; host or cells: E. coli Rosetta 2(DE3)pLysS
In words: TetR regulated in vitro transcription of 3WJdB, derepression by ligand. The format is biochemical. The conditions noted are these: 200 pmol of antibiotic, T7 RNAP, FIG. 7. An excerpt: The family of tetracycline antibiotics are known ligands of the TetR repressor—they can induce an allosteric conformational change in TetR that results in a lowered affinity for the DNA operator sequence. Importantly, TetR repression of in vitro transcription is relieved if a cognate ligand is included immediately prior to measurement and coincident with the addition of T7 RNAP. […] This included anhydrotetracyline, tetracycline, oxytetracycline, chlortetracycline, and doxycycline. […] The 2 BP spacer (“GG”) promotes efficient transcription initiation with T7 RNAP.
Finally, to validate that the TetR regulated in vitro transcription reactions were specifically responsive to tetracycline antibiotics and that fluorescence was not due to nonspecific activity, we tested the TetR regulated in vitro transcription reaction of the 3WJdB output against macrolide antibiotics (FIG. 10A) as well as other common antibiotics used in biological research (FIG. 10B). None of the non-tetracycline antibiotics tested here is known to induce a conformational change in TetR. In all cases, strong repression of transcription was observed over the course of 2 hours except when tested against the positive control (anhydrotetracyline), or in the absence of the repressor (the unregulated reaction).

For assay [2], the target named is T1, TetR. In words: TetR regulated in vitro transcription of strand-invading RNA (InvadeR), DNA output gate. The format is biochemical. The note with it: FIG. 9. The text has this:
We next transcribed a strand-invading RNA (“InvadeR”) to illustrate that an alternative RNA output can also be visualized in real-time. The InvadeR system works through toehold-mediated strand displacement of a DNA output gate. The DNA output gate consists of 2 annealed and complementary strands (“reporter” and “quencher,” boxed in FIG. 3A). The reporter strand consists of 24 nucleotides and a 3′ fluorophore, while the quencher strand contains 16 complementary nucleotides and a 5′ quencher. When annealed, the two strands leave an 8-nucleotide single-stranded “toehold” region on the 5′ end of the reporter strand. Spatial proximity of the 3′ fluorophore and 5′ quencher results in fluorescence quenching (the “OFF” state). For the InvadeR system described here, we utilized a 3′ terminal single isomer derivative of fluorescein (6-FAM) and a quencher strand with a 5′ terminal Iowa Black FQ quencher. […]
Upon transcription of the InvadeR sequence, which contains 24 nucleotides of perfect complementarity to the reporter strand, the RNA product hybridizes to the single-stranded toehold region of the DNA output gate. This initiates a strand invasion reaction that eventually displaces the quencher strand and alleviates fluorescence quenching (the “ON” state). […]

Assay [3] concerns the target T1, TetR. In words: TetR regulated in vitro transcription of 3WJdB with T3 or SP6 RNAP. The format is biochemical. The conditions noted are these: unoptimized. An excerpt: RIViTS are modular with respect to RNA polymerase. T7 RNA polymerase is a single-subunit RNA polymerase from the T7 bacteriophage. It is closely related to the T3 and SP6 bacteriophages and their RNA polymerases are homologous. We reasoned that we could swap the T7-specific promoter from the TetR regulated in vitro transcription of 3WJdB for an SP6 or T3-specific promoter, and maintain the ability to repress and induce transcription by using the appropriate RNAP. […] We suspect that further optimization of the transcription reaction conditions (e.g. buffer composition) will substantially improve the fold-change between the repressed and derepressed states.

In another assay the target is T2, CadC (Staphylococcus aureus, UniProt P20047).
T2 construct: 6xHis; made in house; host or cells: E. coli Rosetta 2(DE3)pLysS
T2 sequence (P20047 whole entry): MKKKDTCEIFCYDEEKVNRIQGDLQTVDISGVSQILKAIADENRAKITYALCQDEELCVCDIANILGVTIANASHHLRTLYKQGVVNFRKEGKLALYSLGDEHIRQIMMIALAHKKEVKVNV
In words: CadC regulated in vitro transcription of 3WJdB (lead sensor). Type of assay: biochemical. The note with it: CadC dimer decreased from 1.5 μM to 0.5 μM, FIG. 26b. The text has this: (§1) Next, we sought to tune the sensitivity of the copper sensor to meet the EPA regulated limit of copper in drinking water (1.3 ppm). Without any tuning, the sensor detects 0.3 ppm of copper and above (FIG. 26a). To desensitize the sensor to respond near the EPA regulated limit of copper, we reasoned that excess CsoR could be added to the reactions to act as a copper chelator. […] To further implement this strategy of tuning the amount of transcription factors to shift the sensitivity of a sensor, we determined if the lead sensor can be sensitized by decreasing the amount of CadC dimer. When the concentration was decreased from 1.5 μM to 0.5 μM of CadC, we were able to shift the dose response curve to be more sensitive in order to detect tens of ppb of lead (FIG. 26b).

For another assay, the target named is SAR2349 (Staphylococcus aureus, UniProt Q6GEG9). The conditions noted are these: FIG. 24.
Sequence of SAR2349 (Q6GEG9 whole entry): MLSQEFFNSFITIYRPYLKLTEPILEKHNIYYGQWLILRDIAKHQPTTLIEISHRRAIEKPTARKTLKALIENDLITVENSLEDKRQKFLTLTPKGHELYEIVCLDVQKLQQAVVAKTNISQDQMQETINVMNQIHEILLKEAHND
For a further assay, the target named is T3, AdcR (Streptococcus pneumoniae serotype 2, UniProt Q04I02).
T3 construct: Giedroc Lab (Indiana University Bloomington), gift
T3 sequence (Q04I02 whole entry): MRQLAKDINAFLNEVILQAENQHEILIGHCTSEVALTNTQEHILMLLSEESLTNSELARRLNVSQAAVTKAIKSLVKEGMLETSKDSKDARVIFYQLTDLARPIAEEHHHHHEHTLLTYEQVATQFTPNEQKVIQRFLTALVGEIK
In words: adcO-regulated KB2 kleptamer circuit with AdcR. The conditions noted are these: unregulated 3WJdB template and adcO regulated KB2 template, FIG. 23. The format is biochemical. The text has this: ATF ligand-mediated transcriptional repression can be inverted to ligand-mediated activation with RNA genetic circuitry. We next tested the kleptamer system with an ATF that is known to bind to its operator site in the presence of its cognate ligand and therefore cause ligand-mediated repression. AdcR is a MarR-family ATF and known to regulate genes encoding a high-affinity ABC uptake system for zinc and cell-surface zinc-binding pneumococcal histidine triad proteins.^36 Unlike the ATFs we tested previously, apo-AdcR is unbound to its operator site. Upon binding Zn(II), AdcR undergoes a conformational change that results in binding to the operator site. We placed an operator site recognized by AdcR (adcO) upstream of the KB2 kleptamer so that when zinc is present, the transcription of the KB2 kleptamer is repressed by the AdcR-zinc complex and the fluorescence-activating 3WJdB aptamer is produced.

A further assay addresses T4, CsoR (Bacillus subtilis, UniProt O32222).
T4 construct: 6xHis; made in house; host or cells: E. coli Rosetta 2(DE3)pLysS
T4 sequence (O32222 1-101): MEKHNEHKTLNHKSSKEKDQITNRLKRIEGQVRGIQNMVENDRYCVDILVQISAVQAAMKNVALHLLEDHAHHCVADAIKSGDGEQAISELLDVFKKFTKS
In words: CsoR regulated in vitro transcription of 3WJdB (copper sensor). The note with it: for reactivity of the copper sensor against metals: FIG. 25A. Type of assay: biochemical.
Excerpt: as §1

For another assay, the system named is MphR. In words: MphR regulated in vitro transcription of 3WJdB. Type of assay: biochemical. The note with it: FIG. 24. The text has this: Similarly, we tested the orthogonality of the TetR, OtrR, CtcS, and MphR with their respective ligands (FIG. 17). In the absence of the ligands or inducers, there was a strong repression of transcription by the ATFs as expected. Only the tetracycline antibiotics tested were able to cause an allosteric conformational change in TetR, OtrR, and CtcS and restore fluorescence signal equivalent to micromolar amounts of soluble FITC, confirming the results presented in FIG. 10A. Similarly, MphR was responsive to macrolide antibiotics, but not to any tetracycline antibiotics tested.

T1 sequence (P04483 whole entry): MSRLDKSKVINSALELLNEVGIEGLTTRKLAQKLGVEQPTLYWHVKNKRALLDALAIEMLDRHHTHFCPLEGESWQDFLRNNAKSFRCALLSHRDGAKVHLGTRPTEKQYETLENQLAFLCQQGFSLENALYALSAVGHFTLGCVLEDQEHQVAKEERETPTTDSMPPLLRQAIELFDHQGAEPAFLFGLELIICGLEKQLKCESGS
Method for SAR2349: In Vitro Transcription. DFHBI-1T was purchased from either Lucerna or Tocris Bioscience and resuspended in DMSO at 40 mM. 45 nmol of DFHBI-1T was used in each transcription reaction involving the 3WJdB aptamer. Data from FIG. 1 was generated using a HiScribe T7 Quick High Yield RNA Synthesis Kit from New England BioLabs following the manufacturer's protocol and using 1 μg of template DNA (˜5.2 pmol). All other T7 RNA polymerase transcriptions contained T7 transcription buffer (40 mM Tris-HCl pH 8.0, 20 mM NaCl, 10 mM DTT, 8 mM MgCl2, 2 mM spermidine), 8 mM NTPs, and 2 μL T7 RNA polymerase. Amount of template, inducer, and transcription factor are noted below each figure. T3 and SP6 RNA polymerase were purchased from New England BioLabs, and transcriptions using those polymerases were performed according to the manufacturers protocol. All transcriptions were performed at 37° C. and polymerase was added immediately before measurement.
Reactions were monitored in real time by measuring on a BioTek Synergy H1 plate reader set to incubate at 37° C. For the 3WJdB output, an excitation wavelength of 472 nm and emission wavelength of 507 nm was used with measurements every 3 minutes. For the InvadeR system, excitation and emission wavelengths were set at 495 nm and 520 nm respectively and measurements were taken every minute.

Turning to `Cc1c2c(c(O)c3c(O)cccc13)C(=O)[C@]1(O)C(=O)C(C(N)=O)=C(O)[C@@H](N(C)C)[C@@H]1C2` [anhydrotetracycline], the “relief of TetR repression, aptamer-activated fluorescence” value on TetR [1] was “restored aptamer-activated fluorescence close to or exceeding the level of fluorescence observed”. Besides, the “derepression/induction of TetR-repressed InvadeR system” value on TetR [2] is on record as “derepression/induction”. Further, the “relief of TetR repression” value on TetR [3] (SP6 RNAP, FIG. 11B) is given as “repression is partially relieved”; at TetR [3] (T3 RNAP, FIG. 11A), “repression is partially relieved”.

`[Pb+2]` [lead]: the “concentration detected by the sensor” value at CadC is recorded as “tens of ppb”.

`O=C(O)c1ccccc1O` [salicylate]: the “signal across ligand families” value at SAR2349 is “strong signals from cognate ligands with minimal crosstalk”.

For `[Zn+2]` [zinc], on AdcR, the “fluorescence-activation on titration of ligand” value is recorded as “increased fluorescence-activation”. For the same compound, the “reactivity of the copper sensor against metals” value at CsoR is listed as “can respond to copper as well as zinc”.

On to `[Cu+2]` [copper], for which the “sensitivity of the sensor” value on CsoR (CsoR tetramer increased to 7.5 μM, FIG. 26a) is given as 1 ppm. Further, at CsoR (FIG. 24), the “signal across ligand families” value was “strong signals from cognate ligands with minimal crosstalk”. In addition, the “reactivity of the copper sensor against metals” value at CsoR is reported as “can respond to copper as well as zinc”. Also, the “concentration detected by the sensor” value at CsoR (without any tuning, CsoR tetramer 2.5 μM, FIG. 26a) is listed as at least 0.3 ppm.

`CC[C@H]1OC(=O)[C@H](C)[C@@H](O[C@H]2C[C@@](C)(OC)[C@@H](O)[C@H](C)O2)[C@H](C)[C@@H](O[C@@H]2O[C@H](C)C[C@H](N(C)C)[C@H]2O)[C@](C)(O)C[C@@H](C)C(=O)[C@H](C)[C@@H](O)[C@]1(C)O` [erythromycin]: the “signal across ligand families” value in the assay with MphR is given as “strong signals from cognate ligands with minimal crosstalk”.
